Measured values: US5538987A, “Imidazole ethers having a II antagonist activity” (Istituto Luso Farmaco D'Italia S.p.A., priority 1992, dated 1996)
pKi: −log10 of the molar value.

Legend:
[1] = molecular target: T1, A II receptor (Oryctolagus cuniculus, UniProt P34976); experiment: inhibition of the A II-induced contraction in the rabbit aorta; format: cell-based; details: in vitro, read-out: pA2 (converted)
T1 construct: A II-induced contraction in the rabbit aorta; from tissue; host or cells: rabbit aorta
T1 sequence (P34976 1-359): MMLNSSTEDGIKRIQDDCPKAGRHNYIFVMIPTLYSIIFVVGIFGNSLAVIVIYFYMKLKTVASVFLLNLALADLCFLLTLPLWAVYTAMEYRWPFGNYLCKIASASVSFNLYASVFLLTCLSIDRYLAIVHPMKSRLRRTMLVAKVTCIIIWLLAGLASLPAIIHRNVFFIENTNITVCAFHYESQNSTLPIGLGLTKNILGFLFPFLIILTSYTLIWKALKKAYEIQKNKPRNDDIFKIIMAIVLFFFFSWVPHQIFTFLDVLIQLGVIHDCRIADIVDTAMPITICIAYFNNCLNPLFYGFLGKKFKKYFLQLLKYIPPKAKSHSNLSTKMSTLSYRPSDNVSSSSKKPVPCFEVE
Excerpt: (§1) The compounds described in the present invention act as antagonists at the A II receptor level.
(§2) For the characterization and the evaluation of the effectiveness of the compounds of the invention, in vitro tests (such as the inhibition of the A II-induced contraction in the rabbit aorta and the displacement of ^125 I-Sar^1 -Ile^8 -AT II or [^3 H] AT II in the rat adrenal cortex) and an in vivo test (the inhibition of the A II-induced pressory response in the ganglio-blocked normotensive rat) were selected.

[2] = molecular target: A II receptor; experiment: receptor binding test: displacement of 125I-Sar1-Ile8-AT II or [3H] AT II in the rat adrenal cortex
Excerpt: as §1, §2

Kb [1]	pKi [2]	SMILES
0.2 nM	8.36	CCCCc1nc(Cl)c(COCc2ccccc2C(=O)O)n1Cc1ccc(-c2ccccc2-c2nnn[nH]2)cc1 [ex. 18, 2-butyl-5-[(2-carboxyphenyl)methoxymethyl]-4-chloro-1-[[2'-(1H-tetrazol-5-yl)-1,1'-biphenyl-4-yl]methyl]-1H-imidazole]
1.26 nM	8.49	CCCCc1nc(Cl)c(COCc2occc2C(=O)O)n1Cc1ccc(-c2ccccc2-c2nnn[nH]2)cc1 [2-butyl-5-[(3-carboxyfuran-2-yl)methoxymethyl]-4-chloro-1-[[2'-(1H-tetrazol-5-yl)-1,1'-biphenyl-4-yl]methyl]-1H-imidazole]
